# Reference: US10414759B2, “Phenylthiazoles and uses thereof” (Purdue Research Foundation, priority 2017, dated 2019)
# Columns and labels:
# MRSA (2658 RCMB) = experiment: MIC against MRSA (2658 RCMB), broth dilution; format: cell-based, Staphylococcus aureus; details: Staphylococcus aureus; Table 7; initial screening, MRSA (2658 RCMB); read-out: minimum inhibitory concentration (MIC)
# In short: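 Broth dilution in cation-adjusted Mueller-Hinton broth with an inoculum of about 5×10^5 CFU/mL (from a 0.5 McFarland suspension), using triplicate serial dilutions. MIC was the lowest concentration with no visible growth by visual inspection, reported as the mean of triplicates.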
# MRSA (USA300) = experiment: Time-kill assay; format: cell-based, Staphylococcus aureus; details: 3.0×MIC
# Protocol: Aliquots (100 μL) were taken from each sample after 2, 4, 6, 8, 10, 12, and 24 hours, serially diluted in phosphate-buffered saline, and transferred to Trypticase soy agar (TSA) (Becton, Dickinson and Company, Sparks, Md., USA) plates. Plates were incubated at 37° C. for at least 16 hours before counting viable CFU/mL to determine the time required to reduce the bacterial cell count by 3-log10.
# S. aureus ATCC 6538 = experiment: MIC/MBC S. aureus strains (Table 8); format: cell-based; details: Staphylococcus aureus, ATCC6538
# Protocol: (§1) A bacterial solution equivalent to 0.5 McFarland standard was prepared and diluted in cation-adjusted Mueller-Hinton broth (CAMHB) to achieve a bacterial concentration of about 5×10^5 CFU/mL and seeded in 96-well plates. Enterococcus faecium was diluted in brain heart infusion broth. Enterococcus faecalis, Streptococcus pneumonia and Listeria monocytogenes were diluted in tryptone soya broth (TSB).
# S. aureus NRS107 = experiment: MIC/MBC S. aureus strains (Table 8); format: cell-based, Staphylococcus aureus; details: Staphylococcus aureus; Table 8; S. aureus NRS107
# Protocol: as §1
# [1] = test system: Cephalosporin-resistant Streptococcus pneumoniae ATCC 51916; experiment: MIC/MBC Gram-positive pathogens (Table 9); format: cell-based; details: ATCC51916
# In short: (§2)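 Bacteria were adjusted to a 0.5 McFarland equivalent and diluted to roughly 5×10^5 CFU/mL before seeding into plates; staphylococci were grown in CAMHB, whereas pneumococci were diluted in tryptone soya broth.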
# [2] = test system: Enterococcus faecalis ATCC 51299 (VRE); experiment: MIC/MBC Gram-positive pathogens (Table 9); format: cell-based; details: Table 9, Enterococcus faecalis ATCC 51299 (VRE)
# Protocol: as §1
# [3] = test system: Methicillin-resistant Streptococcus pneumoniae ATCC 700677; experiment: MIC/MBC Gram-positive pathogens (Table 9); format: cell-based; details: ATCC700677
# In short: as §2
# MRSA USA400 (NRS123) = experiment: Multi-step resistance selection experiment; format: cell-based, Staphylococcus aureus; details: MRSA USA400, sub-lethal doses, 14 daily passages
# Protocol: To determine if MRSA would be capable of forming resistance to the compounds quickly, a multi-step resistance selection experiment was conducted, as described previously. The broth microdilution assay was utilized to determine the MIC of the tested compounds and rifampicin exposed to MRSA USA400 (NRS123) for 14 passages over a period of two weeks. Resistance was classified as a greater than four-fold increase in the initial MIC, as reported elsewhere.
# [4] = test system: human colorectal (Caco-2) cell; experiment: In vitro cytotoxicity against Caco-2 cells (MTS); format: cell-based; details: at 32 μg/mL
# Protocol: Tested compounds were assayed (at concentrations of 16, 32, and 64 μg/mL) against a human colorectal (Caco-2) cell to determine the potential toxic effect to mammalian cells in vitro. Briefly, cells were cultured in Dulbecco's Modified Eagle Medium (DMEM) supplemented with 20% fetal bovine serum (FBS), non-essential amino acids (1×), and penicillin-streptomycin at 37° C. with CO2 (5%). Control cells received DMSO alone at a concentration equal to that in drug-treated cell samples. The cells were incubated with the compounds (in triplicate) in a 96-well plate at 37° C. with CO2 (5%) for two hours. The assay reagent MTS 3-(4,5-dimethylthiazol-2-yl)-5-(3-carboxymethoxyphenyl)-2-(4-sulfophenyl)-2H-tetrazolium) (Promega, Madison, Wis., USA) was subsequently added and the plate was incubated for four hours. Absorbance readings (at OD490) were taken using a kinetic microplate reader (Molecular Devices, Sunnyvale, Calif., USA). The quantity of viable cells after treatment with each compound was expressed as a percentage of the viability of DMSO-treated control cells (average of triplicate wells±standard deviation). The toxicity data was analyzed via a two-way ANOVA, with post hoc Sidak's multiple comparisons test (P<0.05), utilizing GraphPad Prism 6.0 (GraphPad Software, La Jolla, Calif.).
# [5] = In vivo PK in rats after single IV bolus injection; design: species or system Sprague-Dawley (SD) rats
# Protocol: In vivo Pharmacokinetics. Pharmacokinetic studies were performed in male naïve Sprague-Dawley (SD) rats (three animals) following Institutional Animal Care and Use Committee guidelines. An IV bolus of a 5 μM solution of compound 19 was directly administered via tail-vein injection. Blood samples were collected over a 12-hour period post dose into Vacutainer tubes containing EDTA-K2. Plasma was isolated, and the concentration of tested compounds in plasma was determined with LC/MS/MS after protein precipitation with acetonitrile. Two-compartmental pharmacokinetic analysis was performed on plasma concentration data in order to calculate pharmacokinetic parameters.
smiles,measurement,setting,value
"Cc1nc(-c2ccc(C(C)(C)C)cc2)sc1-c1ccnc(NCCN)n1 [Compound 54, N-(4-(2-(4-(tert-Butyl)phenyl)-4-methylthiazol-5-yl)pyrimidin-2-yl)ethane-1,2-diamine]",MIC,MRSA (2658 RCMB),1.17 µg/mL
same,"bactericidal / bacteriostatic behaviour in time-kill assay, in words",MRSA (USA300); MRSA,rapid bactericidal activity
same,time to completely eradicate the MRSA inoculum,MRSA (USA300); t-butyl series,within two to four hours
same,MIC,S. aureus ATCC 6538,4 µg/mL
same,MIC,S. aureus NRS107,4 µg/mL
same,MBC,[1],16 µg/mL
same,MIC,[2],16 µg/mL
same,MBC,[2]; read-out: MBC,16 µg/mL
same,MBC,[3],16 µg/mL
same,MIC,[3],2 µg/mL
same,increase in MIC by/after the ninth passage,MRSA USA400 (NRS123),one-fold
same,"tolerability to human colorectal cells, in words",[4],highly tolerable
same,AUC,[5],3980 ng·h/mL
same,CL (clearance),[5],1.26 L/h
same,Vdss (volume of distribution at the steady state),[5],3.39 L
same,"Vβ (volume of distribution in 2nd compartment, peripheral tissues)",[5],16.36 L
same,t1/2 (half-life),[5],9.03 h
